Measured values from patent publication US20070207975A1, “Materials and methods for treating and preventing Her-2/neu overexpressing, FAS-elevated cancer cells” (EVANSTON NORTHWESTERN HEALTHCARE, priority 2006, published 2007).

What was measured:
Type in all cases: cell-based, human
[1] = system: SK-Br3 cells; test: MTT cell viability / isobologram analysis, SK-Br3
Description: FIG. 10. […] Cells in exponential growth were harvested, seeded at a concentration of ˜5×10^3 cells/200 μl/well into 96-well plates and allowed to attach overnight. […] Agents were studied in combination concurrently, and they were not renewed during the entire period of cell exposure. After treatment, the medium was removed and replaced by fresh drug-free medium (100 μl/well), and MTT (5 mg/ml in phosphate-buffered saline [PBS]) was added to each well at a 1/10 volume. After 2-3 hours at 37° C., the supernatants were removed, 100 μl of dimethylsulfoxide was added to each well, and the plates were agitated. Absorbances were measured at 570 nm using a multiwell plate reader (Model Anthos Labtec 2010 1.7 reader). The cell viability effects from exposure of cells to each agent alone and to their combination were analyzed by generating concentration-effect curves as a plot of the fraction of unaffected (surviving) cells versus drug concentration. Dose-response curves were plotted as percentages of the control cell absorbances, which were obtained from control wells treated with appropriate concentrations of vehicles that were processed simultaneously. For each treatment, cell viability was evaluated as a percentage using the following equation: (A570 of treated sample/A570 of untreated sample)×100. […] All statistical tests were two-sided. […]

[2] = system: p185^Her-2/neu; test: In situ immunofluorescent staining of p185Her-2/neu; details: BT-474; 48 hours
Excerpt: FIG. 2. Exogenous supplementation with OA synergistically enhances trastuzumab-induced down-regulation of p185^Her-2/neu. […] The amount of cell surface-associated p185^Her-2/neu was quantified by flow cytometric analyses using a specific antibody against the extracellular domain of p185^Her-2/neu (Ab-5), as described herein. The mean fluorescence signal±SD (n=3) was quantified using the geo mean fluorescence (GM) parameter provided with the Cell Quest Software (Becton Dickinson). […] After labeling, cells were washed thoroughly, and localization of p185^Her-2/neu was detected by indirect immunofluorescence by incubating with FITC-conjugated anti-mouse IgG. After counterstaining with DAPI, cells were examined and photographed using a Zeiss fluorescent microscope equipped with a built-in camera. […] Similar results were obtained in three independent experiments. […] Similar results were obtained in three independent experiments. Cells were seeded at a density of 1×10^4 cells/well in a four-well chamber slide (Nalge Nunc International, Rochester, N.Y.). […] Indirect immunofluorescence was recorded on a Zeiss microscope. […] Thereafter, p185^Her-2/neu cellular localization was assessed using the anti-erbB2, Ab-3 mouse monoclonal antibody (Oncogene Research Products), which is directed against the C-terminal 14 amino acids of p185^Her-2/neu. […]

[3] = system: SK-Br3 and BT-474 cells; test: Anchorage-dependent cell proliferation (Coulter Counter); details: low concentrations of OA, increasing concentrations of trastuzumab, or combination, 6 days
Description: (A) Left panel: exponentially growing SK-Br3 and BT-474 cells were trypsinized and plated in 24-well plates at a density of 10,000 cells/well. Cells were incubated for 24 hours to allow for attachment and starved for serum overnight, after which a zero time point was determined. […] Cells were counted at days 0, 3 and 6 with a Coulter Counter. All assays were performed three times in triplicate. The data are presented as mean number of cells×10^4/well (columns)±SD (bars) after 6 days treatment. […] For each pair of columns, the height of the columns on the left represents the sum of the effect of each agent alone and, therefore, the expected percentage of cell growth inhibition if their effect was additive when used in combination. […] Colony formation (≧50 μm) was assessed using a colony counter. Each experimental value represents the mean colony number (columns)±SD (bars) from three separate experiments in which triplicate dishes were counted. […]
SK-Br3 and BT-474 cells exponentially growing in IMEM-5% FBS were trypsinized and re-plated in 24-well plates at a density of 10,000 cells/well. Cells were incubated for 24 hours to allow for attachment, after which a zero time point was determined. […] Cell number was determined at days 0, 3 and 6 with a Coulter Counter (Coulter Electronics, Inc., Hialeah, Fla.). […]

[4] = system: PEA3; test: Immunoblot analysis of PEA3 protein
Description: […] Louis, Mo.). […] […] A) Cell surface expression of Her-2/neu protein in BT-474 and SK-Br3 cells was determined by flow cytometry using a mouse anti-Her-2/neu antibody directed against the extracellular domain of the p185^Her-2/neu oncoprotein (clone Ab-5; Oncogene Research Products; San Diego, Calif.). Briefly, after GLA or control treatment, cells were washed, harvested, resuspended in phosphate-buffered saline (PBS) containing 1% FBS, and incubated with 5 μg/mL Ab-5 antibody for 1 hour at 4° C. The cells were washed again and then incubated with a fluorescein isothiocyanate (FITC)-conjugated anti-mouse IgG secondary antibody (Jackson ImnunoResearch Laboratories, West Grove, Pa.) diluted 1:200 in cold PBS containing 1% FBS for 45 minutes at 4° C. The cells were washed once more in cold PBS, and flow cytometric analysis was performed with a FACScalibur flow cytometer (Becton Dickinson, San Diego, Calif.) equipped with Cell Quest Software (Becton Dickinson). […] As a control for nonspecific immunofluorescence, cells were stained with the secondary antibody alone (solid black line). The mean fluorescence signal associated with cells for labeled p185^Her-2/neu was quantified using the Geo Mean (GM) fluorescence parameter provided with the software. […] B) Immunoblot analysis of Her-2/neu and PEA3 proteins in control- and GLA-treated BT-474 and SK-Br3 cells. Cells were washed twice with PBS and then lysed in buffer (20 m M Tris [pH 7.5], 150 m M NaCl, 1 mM EDTA, 1 m M EGTA, 1% Triton X-100, 2.5 m M sodium pyrophosphate, 1 mM β-glycerolphosphate, 1 mM Na3VO4, 1 μg/ml leupeptin, 1 mM phenylmethylsulfonyl fluoride) for 30 minutes on ice. Equal amounts of protein (10 μg) were heated in sodium dodecyl sulfate (SDS) sample buffer for 10 minutes at 70° C., subjected to electrophoresis on either 3-8% NuPAGE Tris-acetate (p185^Her-2/neu) or 10% SDS-polyacrylamide gel electrophoresis (PEA3) gels, and transferred to nitrocellulose membranes. Nonspecific binding was blocked by incubation for 1 hour with TBS-T (25 mM Tris-HCl [pH 7.5], 150 mM NaCl, and 0.05% Tween-20) containing 5% nonfat dry milk. The treated filters were washed in TBS-T and then incubated with primary antibodies, anti-p185^Her-2/neu mouse monoclonal antibody—Clone Ab-3 [Oncogene Research Products, San Diego, Calif.] and anti-PEA3 mouse monoclonal antibody—sc-113 [Santa Cruz Biotechnology, Santa Cruz, Calif.], for 2 hours in TBS-T containing 5% (w/v) nonfat dry milk. The membranes were washed in TBS-T and horseradish peroxidase—conjugated secondary antibodies in TBS-T were added for 45 minutes. Immunoreactive bands were detected by enhanced chemiluminescence reagent (Pierce, Rockford, Ill.). Blots were reprobed with an anti-β-actin goat polyclonal antibody (Santa Cruz Biotechnology) to control for protein loading and transfer. Densitometric values of protein bands were quantified using Scion Imaging Software (Scion Corp., Frederick, Md.).

[5] = system: p27^Kip1; test: Western blot of p27Kip1 expression; details: BT-474; 72 hours; OA, trastuzumab or combination
Excerpt: Densitometric values of protein bands were quantified using Scion Imaging Software (Scion Corp., Frederick, Md.).

Row | Structure (SMILES) | sensitization factor (IC50 without OA / IC50 with OA) ([1]; OA co-exposure, sensitization to trastuzumab) [fold] | p185^Her-2/neu-associated membrane (cell surface) staining [2] | anchorage-dependent cell growth [3] | PEA3 protein levels ([4]; MCF-7/neo cells, OA supplementation) | PEA3 protein expression ([4]; SK-Br3, SK-OV3 and NCI-N87, OA 20 μM, 48 hours) | expression of p27^Kip1 [5] | increase in sensitivity to trastuzumab ([1]; concurrent 10 μg/ml GLA) [fold] | levels of PEA3 protein ([4]; BT-474 and SK-Br3, GLA 10 μg/mL for 48 hours) | levels of PEA3 protein ([4]; MDA-MB-231, GLA exposure) | PEA3 protein expression ([4]; MDA-MB-453, SK-OV3 and NCI-N87, GLA 10 μg/mL for 48 hours)
1 | CCCCCCCCC=CCCCCCCCC(=O)O [OA, 9-octadecenoic acid] | 27 | markedly reduced | no notable effects | not significantly affected | significant up-regulation | slight increase | – | – | – | –
2 | CCCCCC=CCC=CCC=CCCCCC(=O)O [GLA, 6,9,12-octadecatrienoic acid] | – | – | – | – | – | – | ~40 | increase | not changed substantially | increased
